Experimental data as given in patent US20170319563A1, “STEROID-FREE DISEASE MANAGEMENT” (Asana BioSciences, LLC, priority 2014, published 2017).
Where two headings read alike, the source gives them in different places.

Legend:
[1] = target: T1, CYP17 C17,20-lyase (Homo sapiens, UniProt P05093); experiment: CYP17 lyase assay in human testicular microsomes; assay type: biochemical
T1 construct: These cells have intact testosterone synthesis pathway; host or cells: NCI-H295R human adrenocortical carcinoma cells
T1 sequence (P05093 1-508): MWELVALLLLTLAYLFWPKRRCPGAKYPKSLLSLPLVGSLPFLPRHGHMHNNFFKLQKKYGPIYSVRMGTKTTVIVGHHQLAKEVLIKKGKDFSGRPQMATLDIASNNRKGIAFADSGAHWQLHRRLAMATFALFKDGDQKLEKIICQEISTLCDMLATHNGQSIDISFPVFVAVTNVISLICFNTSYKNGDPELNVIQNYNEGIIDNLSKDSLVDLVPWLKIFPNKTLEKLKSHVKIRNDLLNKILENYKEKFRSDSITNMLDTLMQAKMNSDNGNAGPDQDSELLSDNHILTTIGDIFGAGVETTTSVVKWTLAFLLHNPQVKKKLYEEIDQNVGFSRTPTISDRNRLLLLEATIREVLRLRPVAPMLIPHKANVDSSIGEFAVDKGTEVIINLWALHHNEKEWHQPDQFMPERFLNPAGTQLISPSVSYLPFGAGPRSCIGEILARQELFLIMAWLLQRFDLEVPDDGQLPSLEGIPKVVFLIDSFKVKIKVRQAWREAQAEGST
Excerpt: ASN001 has one chiral center. The individual enantiomers of ASN001 are both potent and selective inhibitors of CYP17. […] Similar relative potency results for the racemate and enantiomers have also been obtained experimentally in rat testicular microsomes and human H295R adrenocortical carcinoma cells. In summary ASN001 and its individual enantiomers are all potent inhibitors of CYP17 activity and testosterone synthesis in biochemical and cellular functional assays.
(§1) General procedures for the in vitro and in vivo studies discussed above have been described previously in WO 2013/049559 (published in the US as United States Patent Application Publication No. US 2013/0085148; see e.g. Examples 84-88). The inhibitory effect of compounds on human CYP17 lyase activity in vitro in human testicular microsomes (CelsisIVT, US) was determined in a similar manner to the CYP17 lyase assay in rat testicular microsomes described previously as Example 84 in WO 2013/049559 (published in the US as United States Patent Application Publication No. US 2013/0085148), except that human testicular microsomes were used instead of rat testicular microsomes.

[2] = system: corticosterone synthesis; experiment: Cell-based functional assay: corticosterone synthesis inhibition in H295R cells; design: species or system human
Experimental: Cell-Based Functional Assay: Corticosterone Synthesis Inhibition
The H295R cell based assay was used to examine effects on corticosterone synthesis. The DetectX® Corticosterone Immunoassay kit (Arbor Assays, Cat. No. K014-H1) measures Corticosterone present in extracted dried fecal samples, serum, plasma and tissue culture media samples.
(§2) Standard Preparation • 1. Label seven test tubes as #1 through #7. • 2. Pipet 450 μL of Assay Buffer into tube #1 and 250 μL into tubes #2 to #7. • 3. The corticosterone stock solution contains an organic solvent. Pre-rinse the pipet tip several times to ensure accurate delivery. • 4. Carefully add 50 μL of the corticosterone stock solution to tube #1 and vortex completely. • 5. Take 250 μL of the corticosterone solution in tube #1 and add it to tube #2 and vortex completely. • 6. Repeat the serial dilutions for tubes #3 through #7. • 7. The concentration of corticosterone in tubes 1 through 7 will be 5,000, 2,500, 1,250, 625, 312.5, 156.25 and 78.125 pg/mL.
(§3) Assay Protocol • 1. Subculture H295R (Human Adreno Cortical Carcinoma cell line ATCC# CRL-2128) cells and seed 60,000 cells per well in a poly-d lysine plate and leave it overnight at 37° C. • 2. Add 50 μl of serially diluted compounds from a 5×plate. • 3. Incubate overnight at 37° C. (˜16 hours). • 4. Collect media/cell culture supernatant and dilute appropriately for Corticosterone estimation (1:10 Diluted with assay buffer). • 5. Pipet 50 μL of samples or standards into wells in the plate. • 6. Pipet 75 μL of Assay Buffer into the non-specific binding (NSB) wells. • 7. Pipet 50 μL of Assay Buffer into wells to act as maximum binding wells (Bo or 0 pg/mL). • 8. Add 25 μL of the DetectX® Corticosterone Conjugate to each well using a repeater pipet. • 9. Add 25 μL of the DetectX® Corticosterone Antibody to each well, except the NSB wells, using a repeater pipet. • 10. Gently tap the sides of the plate to ensure adequate mixing of the reagents. Cover the plate with the plate sealer and shake at room temperature for 1 hour. If the plate is not shaken signals bound will be approximately 45% lower. • 11. Aspirate the plate and wash each well 4 times with 300 μL wash buffer. Tap the plate dry on clean absorbent towels. • 12. Add 100 μL of the TMB Substrate to each well, using a repeater pipet. • 13. Incubate the plate at room temperature for 30 minutes without shaking. • 14. Add 50 μL of the Stop Solution to each well, using a repeater or a multichannel pipet. • 15. Read the optical density generated from each well in a plate reader capable of reading at 450 nm. • 16. Use the plate reader's built-in 4PLC software capabilities to calculate Corticosterone concentration for each sample.

[3] = Food effect and bioavailability in rats; assay type: in vivo, rat
Excerpt: Accordingly, the dosage forms, regimens and methods of administration described herein may be accomplished on humans in the fed or fasted state and with food or without. Thus, the methods described herein could include administration of a therapeutically effective amount of ASN001, as a substantially pure enantiomer, as a mixture or as a racemic mixture, which is “food indifferent” which means with or without food to a patient in a fed or fasted state. Examples include, without limitation, with food, to a patient who has consumed food in the last two hours, without food, and/or to a patient who has not eaten in the last two hours.

[4] = system: cortisol synthesis; experiment: Cell-based functional assay: cortisol synthesis inhibition in H295R cells; design: species or system human
Experimental: Cell-Based Functional Assay: Cortisol Synthesis Inhibition
The H295R cell based assay was used to examine effects on cortisol synthesis. The DetectX® Cortisol Immunoassay kit (Arbor Assays, Cat. No. K003-H1) measures Cortisol present in extracted dried fecal samples, serum, plasma and tissue culture media samples.
as §2, with “Cortisol” for “corticosterone”
as §3, with “Cortisol” for “Corticosterone”, “diluted” for “Diluted”, “(B0” for “(Bo”

[5] = system: male SD rats; experiment: Prostate and seminal vesicle weights after 14 days repeat oral administration; assay type: in vivo
Experimental: The effect of ASN001 and its individual enantiomers on prostate and seminal vesicle weights was evaluated after 14 days repeat oral administration in male SD rats. ASN001 caused a dose-dependent reduction of the prostate and seminal vesicle weights.
(In a prior test using ASN001 at 30 mg/kg once a day (QD) PO×14 days, not made in comparison to either enantiomer, but using the same general protocol, the reduction in prostate and seminal vesicle weights was “about 50%” and “about 60%” respectively. See Example 88 of WO 2013/049559.)
as §1

[6] = system: testosterone synthesis; experiment: Cell-based functional assay: testosterone synthesis inhibition in H295R cells; design: species or system human; details: for EC50: Homo sapiens, NCI-H295R, H295R cells; for IC50 / testosterone/cortisol synthesis inhibition ratio: human adrenal NCI-H295R cells
Experimental: Cell-Based Functional Assay: Testosterone Synthesis Inhibition
To understand how the inhibition of CYP17 lyase impacts testosterone synthesis, testosterone levels were measured in H295R adrenocortical carcinoma cells. This assay was conducted as described previously as Example 86 in WO 2013/049559 (published in the US as United States Patent Application Publication No. US 2013/0085148).

[7] = system: male SD rats; details: prior test, 30 mg/kg QD PO x 14 days; Example 88 of WO 2013/049559; cited from earlier work
[8] = target: T1, CYP17 C17,20-lyase; experiment: Cell-based CYP17 C17,20-lyase assay in H295R cells
Experimental: Cell-Based CYP17 C17,20-Lyase Assay
To test the inhibitory effect of compounds on CYP17 C17,20-lyase activity in cells, human adrenocortical carcinoma H295R cells (ATCC) were used. These cells have intact testosterone synthesis pathway and are ideal to study the effect of compounds on various enzymes involved in this pathway. The cell-based CYP17 C17,20-Lyase assay was conducted as described previously as Example 85 in WO 2013/049559 (published in the US as United States Patent Application Publication No. US 2013/0085148).

[9] = Homo sapiens, NCI-H295R, H295R cells, read-out: corticosterone synthesis inhibition IC50
[10] = human adrenal NCI-H295R cells, read-out: corticosterone synthesis IC50
[11] = Homo sapiens, NCI-H295R, H295R cells, read-out: cortisol synthesis inhibition IC50
[12] = human adrenal NCI-H295R cells, read-out: cortisol synthesis IC50
[13] = H295R cells, average of multiple runs, read-out: CYP17 C17,20-lyase average IC50
[14] = human adrenal NCI-H295R cells, read-out: 17,20-Lyase IC50

SMILES | IC50 [1] [nM] | IC50 [2, 9] [nM] | IC50 [2, 10] [nM] | IC50 [4, 11] [nM] | IC50 [4, 12] [nM] | reduction in prostate weight ([5]; 10 mg/kg BID PO x 14 days) [%] | reduction in seminal vesicle weight ([5]; 10 mg/kg BID PO x 14 days) [%] | EC50 [6] [nM] | IC50 [6] [nM] | testosterone/cortisol synthesis inhibition ratio [6] | IC50 [8, 13] [nM] | IC50 [8, 14] [nM] | also measured
CC(O)(c1ccncc1)c1cnc(-c2ccc(F)cc2)s1 (single isomer, unassigned; (+)) [(+)ASN001] | 63 |  |  |  |  |  |  |  |  |  |  |  | 
CC(O)(c1ccncc1)c1cnc(-c2ccc(F)cc2)s1 (racemic) [ASN001, 1-(2-(4-fluorophenyl)thiazol-5-yl)-1-(pyridin-4-yl)ethanol] | 15 | 2800 | 2800 | 346 | 350 | 24 | 48 | 54 | 54 | 6.5 | 50 | 50 | bioavailability ([3]; rat and other non-clinical species): quite high; food effect ([3]; rats): does not exhibit a food effect; reduction in prostate weight ([5]; 30 mg/kg QD PO x 14 days): 29%; reduction in seminal vesicle weight ([5]; 30 mg/kg QD PO x 14 days): 43%; reduction in prostate weight [7]: about 50%; reduction in seminal vesicle weight [7]: about 60%; difference between C17,20-lyase inhibition and cortisol biosynthesis inhibition ([8]; adrenal NCI-H295R cells): ~7 fold
CC(O)(c1ccncc1)c1cnc(-c2ccc(F)cc2)s1 (single isomer, unassigned; (-)) [(−)ASN001] | 8 |  |  |  |  | 30 | 31 |  |  |  |  |  | reduction in prostate weight ([5]; 15 mg/kg QD PO x 14 days): 17%; reduction in seminal vesicle weight ([5]; 15 mg/kg QD PO x 14 days): 27%
C[C@]12CC[C@H](O)CC1=CC[C@@H]1[C@@H]2CC[C@]2(C)C(c3cccnc3)=CC[C@@H]12 [Abiraterone, abiraterone, reference compound] |  | 65 | 65 | 0.68 | < 1 |  |  | 5 | 5 | <0.2 | 2.8 | 3 | 
